These results are taken from patent publication US20230416168A1 (EUROCHEM ANTWERPEN, priority 2020, published 2023).

What is called IC50 is the point on the concentration scale where inhibition reaches its midpoint.

One experiment concerns Nitrosomonas europaea. The experiment is described as follows: Nitrification inhibition assay with Nitrosomonas europaea (nitrite level after 24 h). The class given is cell-based. Conditions: for IC50 / activity at 100 µM: Nitrosomonas europaea; for IC50: 8-point dose response, 2 to 100 μM, read-out: IC50; for activity at 100 µM: tested concentration 100 μM, 24 h, normalized to DMSO (100%) and 100 μM DMP (0%), read-out: Nitrification (%) at tested concentration (0 = maximum activity). In short, it runs like this: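 Fivefold-concentrated N. europaea culture with ammonium incubated 24 h at 28 °C, shaken, with compound (single-point screen at 50 μM final; dose–response 2–100 μM, 8 points, 1.75-fold steps). Nitrite measured by Griess reagent at 540 nm, normalised per plate to 1% DMSO and 100 μM DMP controls; IC50 from logistic fit.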

The next experiment deals with Nitrosospira multiformis. The experiment is described as follows: Nitrification inhibition assay with Nitrosospira multiformis (nitrite level after 24 h). The class given is cell-based. Conditions: for IC50 / activity at 100 µM: Nitrosospira multiformis; for IC50: 8-point dose response, 2 to 100 μM, read-out: IC50; for activity at 100 µM: tested concentration 100 μM, 24 h, normalized to DMSO (100%) and 100 μM DMP (0%), read-out: Nitrification at tested concentration (0 = maximum activity). Put shortly: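 Dense N. multiformis cultures (5× concentrated in 181-medium) with ammonium were incubated 24 h at 30° C with shaking, then nitrite measured by Griess reagent at 540 nm. Relative nitrification normalised per plate to DMSO and 100 μM DMP controls; IC50 from logistic fit of 8-point doses 2-100 μM.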

Each structure is given as a SMILES string.

Regarding `CN(Cc1c(Cl)nc2sccn12)CN1CCSC1=S` [Example 1, 3-[[(6-chloroimidazo[2,1-b][1,3]thiazol-5-yl)methyl-methylamino]methyl]-1,3-thiazolidine-2-thione], in the experiment on Nitrosomonas europaea, the “nitrification inhibition, in words” value is reported as “strongly inhibited nitrification”; the IC50 is under 2 µM; the activity at 100 µM is 0%. In the experiment on Nitrosospira multiformis, the “nitrification inhibition, in words” value is on record as “strongly inhibited nitrification”; the IC50 is under 0.8 µM; the activity at 100 µM turned out to be 0%.
As for `CN(Cc1nc2ccccc2s1)CN1CCOC1=S` [Example 5, 3-[[1,3-benzothiazol-2-ylmethyl(methyl)amino]methyl]-1,3-oxazolidine-2-thione], in the experiment with Nitrosomonas europaea, the “nitrification inhibition, in words” value is on record as “strong nitrification inhibition”; the IC50 worked out at 11 µM; the activity at 100 µM is 0%. In the experiment with Nitrosospira multiformis, the “nitrification inhibition, in words” value is reported as “strong nitrification inhibition”; the IC50 is under 3.5 µM; the activity at 100 µM came to 0%.
On to `S=C1NCCO1` [Example 7], for which, in the experiment on Nitrosomonas europaea, the IC50 is under 6 µM and the activity at 100 µM was determined as 0%. For the same compound, in the experiment with Nitrosospira multiformis, the IC50 was under 10 µM and the activity at 100 µM came to 0%.
For `S=c1[nH]ccs1` [Example 24, 3H-1,3-thiazole-2-thione], the figures for the “nitrification inhibition, in words” value in the experiment on Nitrosomonas europaea and in the experiment on Nitrosospira multiformis were “nearly completely inhibits nitrification” and “very strong effect”, respectively. The “Average nitrification [%] in Nitrosomonas europaea” value in the experiment with Nitrosomonas europaea (2 μM) is 79%; in the experiment on Nitrosomonas europaea (3.5 μM), 78%; in the experiment on Nitrosomonas europaea (6 μM) it was 76%; with Nitrosomonas europaea (11 μM), 74%; in the experiment with Nitrosomonas europaea (19 μM), 60%; in the experiment with Nitrosomonas europaea (33 μM), 43%. Besides, the “Average nitrification [%] in Nitrosomonas europaea” value in the experiment on Nitrosomonas europaea (57 μM) is on record as 20%; in the experiment with Nitrosomonas europaea (100 μM) it was 1%. For the same compound, the IC50 in the experiment on Nitrosomonas europaea stood at 13 µM; with Nitrosospira multiformis it was 1.3 µM. For the same compound, the activity at 100 µM with Nitrosomonas europaea came out at 1%; in the experiment on Nitrosospira multiformis, 0%. Besides, the “Average nitrification [%] in Nitrosospira multiformis” value with Nitrosospira multiformis (2 μM) stood at 25%; in the experiment with Nitrosospira multiformis (3.5 μM), 4%; in the experiment with Nitrosospira multiformis (6 μM), 0%; with Nitrosospira multiformis (11 μM), 0%; in the experiment with Nitrosospira multiformis (19 μM), 0%; in the experiment on Nitrosospira multiformis (33 μM), 0%. The “Average nitrification [%] in Nitrosospira multiformis” value in the experiment with Nitrosospira multiformis (57 μM) and in the experiment with Nitrosospira multiformis (100 μM) was 0% in each case.
Regarding `CSc1nccs1` [Example 25, 2-(methylsulfanyI)-1,3-thiazole], the “Average nitrification [%] in Nitrosomonas europaea” value was found to be 85% in the experiment with Nitrosomonas europaea (2 μM); 76% in the experiment with Nitrosomonas europaea (3.5 μM); 73% in the experiment with Nitrosomonas europaea (6 μM); 58% with Nitrosomonas europaea (11 μM); 50% in the experiment with Nitrosomonas europaea (19 μM); 32% with Nitrosomonas europaea (33 μM). In addition, the “Average nitrification [%] in Nitrosomonas europaea” value is recorded as 20% with Nitrosomonas europaea (57 μM) and 2% in the experiment on Nitrosomonas europaea (100 μM). The IC50 with Nitrosomonas europaea is 12 µM; in the experiment on Nitrosospira multiformis, 140 µM. The activity at 100 µM stood at 2% in the experiment with Nitrosomonas europaea and 53% in the experiment with Nitrosospira multiformis. Besides, the “Average nitrification [%] in Nitrosospira multiformis” value in the experiment on Nitrosospira multiformis (2 μM) worked out at 81%; with Nitrosospira multiformis (3.5 μM), 80%; in the experiment with Nitrosospira multiformis (6 μM), 80%; in the experiment on Nitrosospira multiformis (11 μM) it was 76%; in the experiment with Nitrosospira multiformis (19 μM), 74%; in the experiment with Nitrosospira multiformis (33 μM), 67%. In addition, the “Average nitrification [%] in Nitrosospira multiformis” value in the experiment on Nitrosospira multiformis (57 μM) is recorded as 62%; in the experiment on Nitrosospira multiformis (100 μM) it was 53%.
